Source: paper PMC4969146 (Bioorganic & medicinal chemistry letters, 2016)
Converted amounts (≈) assume the structure as drawn. Read-outs that look alike come from different tables or passages of the source.

Tested on: Escherichia coli K12
Assay type: cell-based
[1] = K12, read-out: Minimum Inhibitory Concentration E. coli K12, M9 media
[2] = K12, read-out: Minimum Inhibitory Concentration E. coli K12, M9 plus 5 µg/mL PABA
[3] = K12, read-out: Minimum Inhibitory Concentration E. coli K12, M9 plus 20 µg/mL Methionine

Structure (SMILES) | MIC [1] [µM] | MIC [2] [µM] | MIC [3] [µM]
Cc1cc(NS(=O)(=O)c2ccc(N)cc2)no1 [parent sulfonamide of 15, sulfamethoxazole] | 0.8 (≈ 0.203 µg/mL) | 263 | 1.5
Nc1ccc(S(N)(=O)=O)cc1 [parent sulfonamide of 22, sulfanilamide] | 22 (≈ 3.79 µg/mL) | > 934 | 58
Nc1ccc(S(=O)(=O)c2ccc(N)cc2)cc1 [parent sulfonamide of 21, 4-[(4-aminobenzene)sulfonyl]aniline] | 25 (≈ 6.21 µg/mL) | > 934 | 50
COc1cc(NS(=O)(=O)c2ccc(N)cc2)nc(OC)n1 [parent sulfonamide of 19, sulfadimethoxine] | 1.6 (≈ 0.497 µg/mL) | 537 | 3.4
